Experimental data taken from publication PMC12951562, “SH2scan: Mapping SH2 Domain-Ligand Binding Selectivity for Inhibitors and Degraders” (Journal of Medicinal Chemistry, 2026).
Non-standard residues stand in square brackets, D forms with d. Residues, ends and D or L forms follow the SMILES beside them. pY = N[C@@H](Cc1ccc(OP(=O)(O)O)cc1)C(=O)O

Columns and labels:
Experiment in all cases: biochemical
Assay type in all cases: binding
PTPN6(SH2dom.N-term.) = target: T1, PTPN6(SH2dom.N-term.) (Homo sapiens, UniProt P29350)
T1 construct: SH2dom.N-term. denotes SH2 domain closest to N-terminus of protein; made in house; host or cells: HEK293 (transient transfection, unpurified extract)
T1 sequence (P29350 4-100 limits assumed): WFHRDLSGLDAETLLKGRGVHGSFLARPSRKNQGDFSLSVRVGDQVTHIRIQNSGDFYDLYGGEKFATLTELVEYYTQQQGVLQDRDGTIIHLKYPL

PTPN11(SH2dom.C-term.) = target: T2, PTPN11(SH2dom.C-term.) (Homo sapiens, UniProt Q06124)
T2 construct: SH2dom.C-term. denotes SH2 domain closest to C-terminus of protein; made in house; host or cells: HEK293 (transient transfection, unpurified extract)
T2 sequence (Q06124 112-216 limits assumed): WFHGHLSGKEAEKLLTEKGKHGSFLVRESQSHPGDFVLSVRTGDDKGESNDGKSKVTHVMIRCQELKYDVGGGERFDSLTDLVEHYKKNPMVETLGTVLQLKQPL

CBLB = target: T3, CBLB (Homo sapiens, UniProt Q13191)
T3 construct: the DNA-tagged SH2 domain concentrations used in this study were <0.1 nM; made in house; host or cells: HEK293 (transient transfection; unpurified extract)
T3 sequence (Q13191 241-343 limits assumed): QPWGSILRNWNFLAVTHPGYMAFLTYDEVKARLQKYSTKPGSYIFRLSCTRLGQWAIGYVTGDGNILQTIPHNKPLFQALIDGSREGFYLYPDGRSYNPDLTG

CBLC = target: T4, CBLC (Homo sapiens, UniProt Q9ULV8)
T4 construct: the DNA-tagged SH2 domain concentrations used in this study were <0.1 nM; made in house; host or cells: HEK293 (transient transfection; unpurified extract)
T4 sequence (Q9ULV8 219-321 limits assumed): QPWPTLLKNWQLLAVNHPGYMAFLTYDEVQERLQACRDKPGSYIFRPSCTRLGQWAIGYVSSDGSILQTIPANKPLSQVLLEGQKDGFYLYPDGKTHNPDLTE

GRB2 = target: T5, GRB2 (Homo sapiens, UniProt P62993)
T5 construct: the DNA-tagged SH2 domain concentrations used in this study were <0.1 nM; made in house; host or cells: HEK293 (transient transfection; unpurified extract)
T5 sequence (P62993 60-152 limits assumed): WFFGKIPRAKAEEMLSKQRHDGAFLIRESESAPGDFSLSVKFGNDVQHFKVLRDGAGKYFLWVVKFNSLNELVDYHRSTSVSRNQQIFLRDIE

BLK = target: T6, BLK (Homo sapiens, UniProt P51451); conditions: dose-response; read-out: KD
T6 construct: the DNA-tagged SH2 domain concentrations used in this study were <0.1 nM; made in house; host or cells: HEK293 (transient transfection; unpurified extract)
T6 sequence (P51451 124-220 limits assumed): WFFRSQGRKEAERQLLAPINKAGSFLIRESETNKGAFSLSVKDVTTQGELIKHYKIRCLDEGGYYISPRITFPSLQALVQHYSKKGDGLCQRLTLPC

FYN = target: T7, FYN (Homo sapiens, UniProt P06241); conditions: dose-response; read-out: KD
T7 construct: the DNA-tagged SH2 domain concentrations used in this study were <0.1 nM; made in house; host or cells: HEK293 (transient transfection; unpurified extract)
T7 sequence (P06241 149-246 limits assumed): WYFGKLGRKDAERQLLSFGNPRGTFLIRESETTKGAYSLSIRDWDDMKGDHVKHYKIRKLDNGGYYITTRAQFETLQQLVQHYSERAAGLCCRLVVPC

YES = target: T8, YES (Homo sapiens, UniProt P07947); conditions: dose-response; read-out: KD
T8 construct: the DNA-tagged SH2 domain concentrations used in this study were <0.1 nM; made in house; host or cells: HEK293 (transient transfection; unpurified cell extract)
T8 sequence (P07947 158-255 limits assumed): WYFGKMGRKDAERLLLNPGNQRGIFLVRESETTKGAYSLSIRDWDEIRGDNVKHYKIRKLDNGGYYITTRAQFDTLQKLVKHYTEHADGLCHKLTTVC

GRAP = target: T9, GRAP (Homo sapiens, UniProt Q13588)
T9 construct: the DNA-tagged SH2 domain concentrations used in this study were <0.1 nM; made in house; host or cells: HEK293 (transient transfection; unpurified extract)
T9 sequence (Q13588 60-154 limits assumed): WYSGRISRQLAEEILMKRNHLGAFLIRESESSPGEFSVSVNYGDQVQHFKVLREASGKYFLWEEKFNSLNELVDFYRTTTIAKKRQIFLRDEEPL

SRMS = target: T10, SRMS (Homo sapiens, UniProt Q9H3Y6)
T10 construct: made in house; host or cells: HEK293 (transient transfection), unpurified extract
T10 sequence (Q9H3Y6 whole entry): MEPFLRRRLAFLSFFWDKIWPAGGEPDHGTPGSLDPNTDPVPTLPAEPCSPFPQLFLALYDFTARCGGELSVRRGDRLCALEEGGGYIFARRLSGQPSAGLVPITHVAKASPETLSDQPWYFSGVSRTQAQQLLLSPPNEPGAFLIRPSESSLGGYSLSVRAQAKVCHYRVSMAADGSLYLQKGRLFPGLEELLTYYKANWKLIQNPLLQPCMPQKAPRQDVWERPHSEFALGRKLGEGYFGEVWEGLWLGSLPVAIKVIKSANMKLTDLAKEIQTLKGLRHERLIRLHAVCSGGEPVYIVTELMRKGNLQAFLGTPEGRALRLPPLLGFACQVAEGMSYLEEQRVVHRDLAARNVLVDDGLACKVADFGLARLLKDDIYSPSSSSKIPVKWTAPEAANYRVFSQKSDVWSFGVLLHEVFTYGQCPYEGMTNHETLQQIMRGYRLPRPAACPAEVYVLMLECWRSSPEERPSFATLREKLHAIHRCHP

PIK3R1(SH2dom.N-term.) = target: T11, PIK3R1(SH2dom.N-term.) (Homo sapiens, UniProt P27986)
T11 construct: SH2dom.N-term. denotes SH2 domain closest to N-terminus of protein; made in house; host or cells: HEK293 (transient transfection, unpurified extract)
T11 sequence (P27986 333-428 limits assumed): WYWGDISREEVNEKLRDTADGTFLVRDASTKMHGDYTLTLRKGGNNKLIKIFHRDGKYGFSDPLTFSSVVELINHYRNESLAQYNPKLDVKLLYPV

PIK3R2(SH2dom.N-term.) = target: T12, PIK3R2(SH2dom.N-term.) (Homo sapiens, UniProt O00459)
T12 construct: SH2dom.N-term. denotes SH2 domain closest to N-terminus of protein; made in house; host or cells: HEK293 (transient transfection, unpurified extract)
T12 sequence (O00459 330-425 limits assumed): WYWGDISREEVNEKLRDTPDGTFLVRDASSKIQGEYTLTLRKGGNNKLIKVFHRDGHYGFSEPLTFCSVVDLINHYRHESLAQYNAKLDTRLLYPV

PIK3R3(SH2dom.N-term.) = target: T13, PIK3R3(SH2dom.N-term.) (Homo sapiens, UniProt Q92569)
T13 construct: SH2dom.N-term. denotes SH2 domain closest to N-terminus of protein; made in house; host or cells: HEK293 (transient transfection, unpurified extract)

Question: With `CC(=O)N[C@@H](CCC(=O)O)C(=O)N[C@@H](CCC(N)=O)C(=O)N[C@@H](CC(=O)O)C(=O)N1CCC[C@H]1C(=O)N[C@@H](CCC(N)=O)C(=O)N[C@@H](CCC(=O)O)C(=O)N[C@H](C(=O)N[C@H](C(=O)N[C@@H](Cc1ccc(OP(=O)(O)O)cc1)C(=O)N[C@@H](C)C(=O)N[C@@H](CCC(N)=O)C(=O)N[C@@H](CC(C)C)C(=O)N[C@@H](CC(N)=O)C(=O)N[C@@H](Cc1c[nH]cn1)C(N)=O)[C@@H](C)O)C(C)C` (Ac-EQDPQEVT[pY]AQLNH-NH2) as the compound, how does the Kd (PTPN6(SH2dom.N-term.)) read?
Answer: 3860 ± 864 nM

Question: With `CC[C@H](C)[C@H](NC(=O)[C@@H](NC(=O)[C@H](C)NC(=O)[C@H](Cc1ccc(OP(=O)(O)O)cc1)NC(=O)[C@@H](NC(=O)[C@@H]1CCCN1C(=O)[C@H](CCC(=O)O)NC(=O)[C@@H]1CCCN1C(=O)[C@H](CO)NC(=O)[C@H](C)NC(C)=O)[C@@H](C)CC)[C@@H](C)O)C(=O)N[C@@H](CC(=O)O)C(=O)N[C@@H](Cc1ccccc1)C(=O)N[C@@H](CC(=O)O)C(N)=O` [Ac-ASPEPIpYATIDFD-NH2] as the compound, how does the Kd (PTPN11(SH2dom.C-term.)) read?
Answer: 403 ± 198 nM

Question: Which results are given for `CC(=O)N[C@@H](CCC(=O)O)C(=O)N[C@@H](CC(=O)O)C(=O)N[C@@H](CO)C(=O)N[C@@H](Cc1ccccc1)C(=O)N[C@@H](CC(C)C)C(=O)N[C@@H](CCC(N)=O)C(=O)N[C@@H](CCCNC(=N)N)C(=O)N[C@@H](Cc1ccc(OP(=O)(O)O)cc1)C(=O)N[C@@H](CO)C(=O)N[C@@H](CO)C(=O)N[C@@H](CC(=O)O)C(=O)N1CCC[C@H]1C(=O)N[C@H](C(N)=O)[C@@H](C)O` [Ac-EDSFLQRpYSSDPT-NH2]?
Answer: Kd (CBLB): 373 ± 114 nM; Kd (CBLC): 146 ± 52 nM

Question: `CC[C@H](C)[C@H](NC(=O)[C@H](Cc1ccc(OP(=O)(O)O)cc1)NC(=O)[C@H](CO)NC(C)=O)C(=O)N[C@@H](CC(N)=O)C(=O)N[C@H](C(=O)N1CCC[C@H]1C(=O)N[C@@H](Cc1ccccc1)C(=O)N[C@H](C(=O)N[C@@H](CO)C(N)=O)[C@@H](C)O)C(C)C` (Ac-S[pY]INVPFTS-NH2) was tested. Which Kd (GRB2) did it give?
Answer: 69.4 ± 19.4 nM

Question: `CC[C@H](C)[C@H](NC(=O)[C@@H]1CCCN1C(=O)[C@@H](NC(=O)[C@H](CCC(=O)O)NC(=O)[C@H](CCC(=O)O)NC(=O)[C@H](Cc1ccc(OP(=O)(O)O)cc1)NC(=O)[C@H](CCC(N)=O)NC(=O)[C@@H]1CCCN1C(=O)[C@H](CCC(=O)O)NC(C)=O)[C@@H](C)CC)C(=O)N[C@@H](Cc1ccc(O)cc1)C(=O)N[C@@H](CC(C)C)C(=O)N[C@@H](CCCCN)C(N)=O` (Ac-EPQ[pY]EEIPIYLK-NH2) was tested. Which Kd (BLK) did it give?
Answer: 488 ± 188 nM

Question: What about the Kd (FYN) of the same compound?
Answer: 31.8 ± 2.15 nM

Question: And the Kd (YES)?
Answer: 234 ± 37.6 nM

Question: `CC(=O)N[C@@H](CCCCN)C(=O)N1CCC[C@H]1C(=O)N[C@@H](Cc1ccccc1)C(=O)N[C@@H](Cc1ccc(OP(=O)(O)O)cc1)C(=O)N[C@H](C(=O)N[C@@H](CC(N)=O)C(=O)N[C@H](C(=O)N[C@@H](CCC(=O)O)C(=O)N[C@@H](Cc1ccccc1)C(N)=O)C(C)C)C(C)C` [Ac-KPFpYVNVEF-NH2] (Ac-KPF[pY]VNVEF-NH2) was tested. Which Kd (GRAP) did it give?
Answer: 21.3 ± 4.83 nM

Question: And the Kd (SRMS)?
Answer: 23600 ± 3030 nM

Question: Which results are given for `CSCC[C@H](NC(=O)[C@H](CC(=O)O)NC(=O)[C@H](CC(C)C)NC(=O)[C@H](CCSC)NC(=O)[C@@H]1CCCN1C(=O)[C@@H](NC(=O)[C@H](Cc1ccc(OP(=O)(O)O)cc1)NC(=O)[C@H](CC(=O)O)NC(=O)[C@@H](NC(=O)[C@H](CO)NC(=O)[C@H](CCC(=O)O)NC(=O)[C@H](CC(=O)O)NC(=O)[C@H](CCCCN)NC(=O)[C@H](CO)NC(=O)[C@H](CCSC)NC(=O)[C@H](CC(=O)O)NC(C)=O)C(C)C)C(C)C)C(=O)N[C@@H](CCCCN)C(N)=O` (Ac-DMSKDESVD[pY]VPMLDMK-NH2)?
Answer: Kd (PIK3R1(SH2dom.N-term.)): 41.2 ± 9.77 nM; Kd (PIK3R2(SH2dom.N-term.)): 46.7 ± 6.22 nM; Kd (PIK3R3(SH2dom.N-term.)): 78.5 ± 26.1 nM
